This note sets out measurements from publication PMC5424146, “Activity-based protein profiling as a robust method for enzyme identification and screening in extremophilic Archaea” (Nature Communications, 2017).

Structures are written as SMILES.

The target of assay [1] is T1, esterase/lipase Saci_1105 (1105) (Sulfolobus acidocaldarius, UniProt Q4J9S2).
T1 construct: full gene under the maltose promoter (pSVAmZ-saci_1105) in S. acidocaldarius esterase double knockout; crude lysate or living cells
Briefly: biochemical.

The target in assay [2] is T2, TM_1022 (Thermotoga maritima, UniProt G4FEX6).
T2 construct: gene with own promoter (about 500 bp upstream; pSVA-p-tm1022) in S. acidocaldarius esterase double knockout
T2 sequence (G4FEX6 1-253): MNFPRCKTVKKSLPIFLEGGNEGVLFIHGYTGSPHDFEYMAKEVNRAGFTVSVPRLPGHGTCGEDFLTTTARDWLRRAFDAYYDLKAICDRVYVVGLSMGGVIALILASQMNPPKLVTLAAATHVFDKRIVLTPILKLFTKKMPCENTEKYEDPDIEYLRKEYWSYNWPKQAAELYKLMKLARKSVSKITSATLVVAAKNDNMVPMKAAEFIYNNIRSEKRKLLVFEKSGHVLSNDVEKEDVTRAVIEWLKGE
The assay can be described thus: esterase activity, pNP-octanoate hydrolysis, lysate of double knockout expressing TM_[…]; also competitive labelling at […]. It counts as biochemical. The note with it: pNP-octanoate 0.5 mM; pH 8.0; 35 °C; pre-incubation 1 h at 60 °C; covalent.

Assay [3] has as its target T3, acetylesterase Saci_1116 (1116) (Sulfolobus acidocaldarius, UniProt Q4J9R2).
T3 construct: full gene under the maltose promoter (pSVA-saci_1116) in the esterase double knockout, or native protein in the delta 1105 strain
T3 sequence (Q4J9R2 1-305): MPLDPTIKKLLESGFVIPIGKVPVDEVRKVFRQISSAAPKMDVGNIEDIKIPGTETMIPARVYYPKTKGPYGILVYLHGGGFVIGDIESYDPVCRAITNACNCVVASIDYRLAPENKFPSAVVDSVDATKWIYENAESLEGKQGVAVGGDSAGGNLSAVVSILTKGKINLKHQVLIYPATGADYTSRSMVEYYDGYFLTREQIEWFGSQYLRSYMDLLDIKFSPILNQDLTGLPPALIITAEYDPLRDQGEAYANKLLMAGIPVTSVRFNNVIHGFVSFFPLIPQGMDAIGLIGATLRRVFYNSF
Briefly: esterase activity, pNP-octanoate hydrolysis at […] nm, lysate of delta […] strain. The class given is biochemical. The conditions noted are these: pNP-octanoate 0.5 mM; pH 8.0; 35 °C; pre-incubation 1 h at 60 °C; covalent.

The target in assay [4] is T2, TM_1022. The assay can be described thus: halo on indicator plate, double knockout expressing TM_[…]. It counts as cell-based. The note with it: 1% (v/v) in plate; 78 °C; up to 3 days.

T1 sequence (Q4J9S2 1-306): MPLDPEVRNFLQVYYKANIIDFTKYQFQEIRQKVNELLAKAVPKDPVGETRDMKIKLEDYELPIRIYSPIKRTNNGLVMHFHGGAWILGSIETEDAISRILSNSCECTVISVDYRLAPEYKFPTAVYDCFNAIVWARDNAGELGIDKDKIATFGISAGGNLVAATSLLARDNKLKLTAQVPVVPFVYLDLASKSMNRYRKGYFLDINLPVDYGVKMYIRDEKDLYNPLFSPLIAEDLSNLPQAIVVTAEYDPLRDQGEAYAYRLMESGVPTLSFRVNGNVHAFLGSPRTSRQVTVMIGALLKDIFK

For the compound `C#CCNC(=O)OCCOCCOCCOCCP(=O)(OCC)Oc1ccc([N+](=O)[O-])cc1` (centres unmarked) [compound 2, NP≡], half-maximal inhibition in assay [1] (IC50) was put at 150 nM. In the case of `CCOP(=O)(OCC)Oc1ccc([N+](=O)[O-])cc1` [paraoxon], the “reduced activity at 250 μM” value in assay [2] and in assay [3] was “pre-incubation with paraoxon led in all cases to a significantly reduced esterase activity” in each case. As to `CCCC(=O)OCC(COC(=O)CCC)OC(=O)CCC` [tributyrin], in assay [4], the “halo on indicator plate, double knockout expressing TM_1022” value was “For both substrates, a time-dependent formation of a halo could be observed for this culture”. As for `CCCCCC(=O)OCC(COC(=O)CCCCC)OC(=O)CCCCC` [tricaproin], in assay [4], the “halo on indicator plate, double knockout expressing TM_1022” value is reported as “the halo for the tricaproin substrate was thereby slightly larger than for tributyrate”.
